Experimental data reported in PubChem BioAssay (NCI).
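Here, GI50 denotes the concentration required for 50% inhibition of growth. TGI: concentration producing complete growth inhibition.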

Key:
Assay in all cases: growth of human tumour cells (NCI), 384-well format
[1] = tested on: SNB-75 CNS
[2] = tested on: RXF 393 renal
[3] = tested on: OVCAR-3 ovarian
[4] = tested on: A549 NSCLC
[5] = tested on: NCI-H522 lung
[6] = tested on: K-562 leukemia
[7] = tested on: NCI-H322M lung
[8] = tested on: LOX IMVI melanoma
[9] = tested on: SK-MEL-28 melanoma
[10] = tested on: MDA-MB-468 breast
[11] = tested on: T-47D breast
[12] = tested on: KM12 colon
[13] = tested on: ACHN renal
[14] = tested on: IGROV1 ovarian
[15] = tested on: MALME-3M melanoma
[16] = tested on: NCI/ADR-RES ovarian
[17] = tested on: HCC-2998 colon
[18] = tested on: HL-60(TB) leukemia
[19] = tested on: UACC-257 melanoma
[20] = tested on: SN12C renal
[21] = tested on: DU-145 prostate
[22] = tested on: MOLT-4 leukemia
[23] = tested on: PC-3 prostate
[24] = tested on: MCF7 breast
[25] = tested on: UACC-62 melanoma
[26] = tested on: TK-10 renal
[27] = tested on: U251 glioblastoma
[28] = tested on: SF-539 CNS

COC1CCC(N2C(=O)CNc3ncc(-c4ccc(C(C)(C)O)nc4)nc32)CC1 (stereo unspecified)
GI50 [1]: 0.256 µM | TGI [1]: 22.9 µM | GI50 [2]: 0.438 µM | TGI [2]: 92.4 µM | GI50 [3]: 0.386 µM | TGI [3]: 22.8 µM | GI50 [4]: 0.358 µM | TGI [4]: > 100 µM | GI50 [5]: 0.2 µM | TGI [5]: 21.4 µM | GI50 [6]: 0.517 µM | TGI [6]: 72 µM | GI50 [7]: 0.28 µM | TGI [7]: 52.9 µM | GI50 [8]: 0.587 µM | TGI [8]: 12.9 µM | GI50 [9]: 0.234 µM | TGI [9]: > 100 µM | GI50 [10]: 0.344 µM | TGI [10]: 6.98 µM | GI50 [11]: 0.0743 µM | TGI [11]: > 100 µM | GI50 [12]: 0.474 µM | TGI [12]: 33.9 µM | GI50 [13]: 0.479 µM | TGI [13]: > 100 µM | GI50 [14]: 0.137 µM | TGI [14]: 12.8 µM | GI50 [15]: 0.0689 µM | TGI [15]: 0.587 µM | GI50 [16]: 2.36 µM | TGI [16]: 32.3 µM | GI50 [17]: 2.54 µM | TGI [17]: 34.8 µM | GI50 [18]: 2.47 µM | TGI [18]: 17.1 µM | GI50 [19]: 3.01 µM | TGI [19]: > 100 µM | GI50 [20]: 0.275 µM | TGI [20]: 68.4 µM | GI50 [21]: 0.66 µM | TGI [21]: 20.2 µM | GI50 [22]: 0.233 µM | TGI [22]: 2.11 µM | GI50 [23]: 0.157 µM | TGI [23]: 14.6 µM | GI50 [24]: 0.0686 µM | TGI [24]: > 100 µM | GI50 [25]: 0.237 µM | TGI [25]: 8.49 µM | GI50 [26]: 0.504 µM | TGI [26]: 17.2 µM | GI50 [27]: 1.9 µM | TGI [27]: 41.2 µM | GI50 [28]: 1.27 µM | TGI [28]: 22.3 µM
